Measured values taken from patent US20170007615A1, “Antibacterial Compounds” (priority 2014, published 2017).
Converted amounts (≈) assume the structure as drawn. Read-outs that look alike come from different tables or passages of the source.

Legend:
[1] = tested on: P. aeruginosa drug resistant clinical isolates; experiment: Antibacterial activity (MIC) against drug resistant clinical isolates, alone and with PMBN; type: cell-based; settings: Pseudomonas aeruginosa, read-out: MIC Compound alone
[2] = tested on: E. coli drug resistant clinical isolates; experiment: as above; type: cell-based; settings: for MIC: Escherichia coli, read-out: MIC Compound alone
[3] = tested on: P. aeruginosa (ATCC 27853); experiment: microbe, parasite or virus in culture; settings: Pseudomonas aeruginosa, ATCC27853, read-out: MIC Compound alone
[4] = tested on: E. coli (ATCC 25922); experiment: microbe, parasite or virus in culture; settings: Escherichia coli
[5] = tested on: E. cloaceae drug resistant clinical isolates; experiment: Antibacterial activity (MIC) against drug resistant clinical isolates, alone and with PMBN; type: cell-based; settings: for MIC: read-out: MIC Compound alone
[6] = tested on: P. aeruginosa (ATCC 27853); settings: Table 5

Compound: CCNC(=O)Nc1nc2cc(-c3cnc(NS(=O)(=O)C(C)(C)C)nc3)cc(-c3ccc(C)cn3)c2s1 [Compound A-13, 1-[5-[2-(tert-Butylsulfonylamino)pyrimidin-5-yl]-7-(5-methyl-2-pyridyl)-1,3-benzothiazol-2-yl]-3-ethyl-urea]
- MIC ([1]; P. aeruginosa (MMX3025)): > 16 µg/mL
- MIC ([1]; P. aeruginosa (MMX3026)): > 16 µg/mL
- MIC ([1]; P. aeruginosa (MMX4700)): 16 µg/mL (≈ 30.4 µM)
- MIC of Compound (μg/ml) in the presence of PMBN (128 μg/ml) ([2]; E. coli (BAA200)): ≦0.008 μg/ml
- MIC of Compound (μg/ml) in the presence of PMBN (128 μg/ml) ([2]; E. coli (MMX 1312)): ≦0.008 μg/ml
- MIC of Compound (μg/ml) in the presence of PMBN (128 μg/ml) ([2]; E. coli (MMX 2232)): ≦0.008 μg/ml
- MIC of Compound (μg/ml) in the presence of PMBN (128 μg/ml) ([2]; E. coli (MMX 5743)): ≦0.008 μg/ml
- MIC of Compound (μg/ml) in the presence of PMBN (128 μg/ml) ([2]; E. coli (MMX 5771)): ≦0.12 μg/ml
- MIC of Compound (μg/ml) in the presence of PMBN (128 μg/ml) ([2]; E. coli (MMX 6413)): ≦0.12 μg/ml
- MIC of Compound (μg/ml) in the presence of PMBN (128 μg/ml) ([2]; E. coli (NCTC11954)): ≦0.008 μg/ml
- MIC of Compound (μg/ml) in the presence of PMBN (128 μg/ml) ([2]; E. coli (NCTC13351)): ≦0.12 μg/ml
- MIC of Compound (μg/ml) in the presence of PMBN (128 μg/ml) ([2]; E. coli (NCTC13352)): ≦0.008 μg/ml
- MIC of Compound (μg/ml) in the presence of PMBN (128 μg/ml) ([2]; E. coli (NCTC13353)): ≦0.008 μg/ml
- MIC of Compound (μg/ml) in the presence of PMBN (128 μg/ml) ([2]; E. coli (NCTC13400)): ≦0.008 μg/ml
- MIC of Compound (μg/ml) in the presence of PMBN (128 μg/ml) ([2]; E. coli (NCTC13441)): ≦0.12 μg/ml
- MIC of Compound (μg/ml) in the presence of PMBN (128 μg/ml) ([2]; E. coli (NCTC13450)): ≦0.12 μg/ml
- MIC of Compound (μg/ml) in the presence of PMBN (128 μg/ml) ([2]; E. coli (NCTC13461)): ≦0.12 μg/ml
- MIC of Compound (μg/ml) in the presence of PMBN (128 μg/ml) ([2]; E. coli (NCTC13462)): ≦0.008 μg/ml
- MIC of Compound (μg/ml) in the presence of PMBN (128 μg/ml) ([2]; E. coli (NCTC13463)): ≦0.008 μg/ml
- MIC of Compound (μg/ml) in the presence of PMBN (128 μg/ml) ([2]; E. coli (NCTC13476)): ≦0.12 μg/ml
- MIC ([2]; BAA200, E. coli (BAA200)): > 4 µg/mL
- MIC ([2]; E. coli (MMX 1312)): 16 µg/mL (≈ 30.4 µM)
- MIC ([2]; E. coli (MMX 2232)): 16 µg/mL (≈ 30.4 µM)
- MIC ([2]; E. coli (MMX 5743)): 4 µg/mL (≈ 7.61 µM)
- MIC ([2]; E. coli (MMX 5771)): > 64 µg/mL
- MIC ([2]; E. coli (MMX 6413)): > 64 µg/mL
- MIC ([2]; NCTC11954, E. coli (NCTC11954)): 2 µg/mL (≈ 3.8 µM)
- MIC ([2]; NCTC13351, E. coli (NCTC13351)): > 64 µg/mL
- MIC ([2]; NCTC13352, E. coli (NCTC13352)): 4 µg/mL (≈ 7.61 µM)
- MIC ([2]; NCTC13353, E. coli (NCTC13353)): 1 µg/mL (≈ 1.9 µM)
- MIC ([2]; NCTC13400, E. coli (NCTC13400)): > 4 µg/mL
- MIC ([2]; NCTC13441, E. coli (NCTC13441)): > 64 µg/mL
- MIC ([2]; NCTC13450, E. coli (NCTC13450)): > 64 µg/mL
- MIC ([2]; NCTC13461, E. coli (NCTC13461)): > 64 µg/mL
- MIC ([2]; NCTC13462, E. coli (NCTC13462)): > 4 µg/mL
- MIC ([2]; NCTC13463, E. coli (NCTC13463)): 2 µg/mL (≈ 3.8 µM)
- MIC ([2]; NCTC13476, E. coli (NCTC13476)): 8 µg/mL (≈ 15.2 µM)
- MIC [3]: 4 µg/mL (≈ 7.61 µM)
- MIC ([4]; ATCC25922, read-out: MIC Compound alone, Table 1): 1 µg/mL (≈ 1.9 µM)
- MIC ([4]; ATCC25922, read-out: MIC Compound alone, Table 2): 1 µg/mL (≈ 1.9 µM)
- MIC ([4]; ATCC25922, read-out: MIC Compound alone, Table 3): 1 µg/mL (≈ 1.9 µM)
- MIC of Compound (μg/ml) in the presence of PMBN (128 μg/ml) ([5]; E. cloaceae (MMX 6087)): 0.25 µg/mL
- MIC ([5]; E. cloaceae (MMX 6087)): > 64 µg/mL
- MIC of Compound (μg/ml) in the presence of PMBN (128 μg/ml) ([5]; E. cloaceae (MMX 6093)): 0.12 µg/mL
- MIC ([5]; E. cloaceae (MMX 6093)): 8 µg/mL (≈ 15.2 µM)
- MIC of Compound (μg/ml) in the presence of PMBN (128 μg/ml) ([5]; E. cloaceae (MMX 6095)): 1 µg/mL
- MIC ([5]; E. cloaceae (MMX 6095)): > 64 µg/mL
- MIC of Compound (μg/ml) in the presence of PMBN (128 μg/ml) ([5]; E. cloaceae (MMX 6304)): 0.25 µg/mL
- MIC ([5]; E. cloaceae (MMX 6304)): > 16 µg/mL
- MIC of Compound (μg/ml) in the presence of PMBN (128 μg/ml) [6]: <=0.008 μg/ml
